Test results reported in ChEMBL document CHEMBL1201862, “PubChem BioAssay data set” (2004).
The source made the active and inactive calls. For most assays here, no stated cut-off is given here; in the data, actives have a measured EC50 and inactives only a lower limit.

Legend:
cells [1] = test: cells
[2] = target: Luciferin 4-monooxygenase (Photinus pyralis, UniProt P08659); test: Counter Screen for Luciferase-based Assay Positives. [Related pubchem assays: 620, 618, 411 ]
cells [3] = format: functional, cell-based
[4] = HPDE-C7 pancreatic duct cell viability loss – fluorescence, HTS (AID 430); format: functional, cell-based; conditions: Homo sapiens
[5] = viability loss of HPDE-C7K cells – cell-based, fluorescence, HTS, primary screen (AID 431); format: functional; conditions: Homo sapiens
cells [6] = format: functional, cell-based; remark: listed apart in the source
[7] = viability of PTEN-deleted HCT116 cells – cell-based, HCT116 PTEN knockout, dose response (AID 1047); format: functional;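 further: HCT116 colon tumor cells with PTEN knocked out; cells exposed to compound for 60 hours before readout; potency for loss of cell viability measured by luminescence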
HT-1080 = test: HT1080 cell viability loss – fluorescence readout (AID 620); format: functional, cell-based; conditions: Homo sapiens
[8] = viability of HCT116 lacking mutant beta-catenin – cell-based, human colon tumor, dose response (AID 1045); format: functional;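 further: HCT116 colon tumor cells with beta catenin knocked out; cells exposed to compound for 60 hours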
[9] = target: T1, Replicative DNA helicase DnaB (Mycobacterium tuberculosis, UniProt P9WMR3); test: DnaB intein splicing inhibitors, dose response, biochemical, cell-free fluorescence (AID 449749); format: functional
T1 sequence (P9WMR3 whole entry): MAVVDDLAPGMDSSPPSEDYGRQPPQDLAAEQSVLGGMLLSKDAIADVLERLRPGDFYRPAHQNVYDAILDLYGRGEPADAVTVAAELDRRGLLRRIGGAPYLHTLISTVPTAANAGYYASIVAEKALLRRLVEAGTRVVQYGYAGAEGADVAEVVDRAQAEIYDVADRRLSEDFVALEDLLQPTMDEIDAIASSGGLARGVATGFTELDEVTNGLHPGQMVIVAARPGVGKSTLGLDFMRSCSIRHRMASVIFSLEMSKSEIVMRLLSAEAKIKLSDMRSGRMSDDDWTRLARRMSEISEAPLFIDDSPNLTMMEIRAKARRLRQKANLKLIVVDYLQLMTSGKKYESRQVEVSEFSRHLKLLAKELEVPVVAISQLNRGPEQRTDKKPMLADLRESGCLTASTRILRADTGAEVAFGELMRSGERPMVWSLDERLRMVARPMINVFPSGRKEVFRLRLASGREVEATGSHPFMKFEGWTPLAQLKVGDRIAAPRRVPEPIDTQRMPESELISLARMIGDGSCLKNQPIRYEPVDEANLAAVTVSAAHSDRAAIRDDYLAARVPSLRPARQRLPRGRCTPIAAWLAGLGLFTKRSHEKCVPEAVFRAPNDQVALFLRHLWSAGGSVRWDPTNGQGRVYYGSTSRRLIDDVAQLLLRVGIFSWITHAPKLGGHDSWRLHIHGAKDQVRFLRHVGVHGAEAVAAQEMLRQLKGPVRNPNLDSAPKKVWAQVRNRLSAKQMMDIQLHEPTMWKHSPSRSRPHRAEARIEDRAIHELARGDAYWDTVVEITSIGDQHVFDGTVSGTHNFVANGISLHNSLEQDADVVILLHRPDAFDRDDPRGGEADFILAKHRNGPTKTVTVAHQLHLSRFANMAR

Protein RecA = target: T2, Protein RecA (Mycobacterium tuberculosis, UniProt P9WHJ3); test: Fluorescence Cell-Free Homogeneous Dose Retest to Identify Inhibitors of RecA-Intein Splicing Activity. [Related pubchem assays (depositor defined):AID2097, AID2223, AID489010, AID492950]; format: functional
T2 sequence (P9WHJ3 whole entry): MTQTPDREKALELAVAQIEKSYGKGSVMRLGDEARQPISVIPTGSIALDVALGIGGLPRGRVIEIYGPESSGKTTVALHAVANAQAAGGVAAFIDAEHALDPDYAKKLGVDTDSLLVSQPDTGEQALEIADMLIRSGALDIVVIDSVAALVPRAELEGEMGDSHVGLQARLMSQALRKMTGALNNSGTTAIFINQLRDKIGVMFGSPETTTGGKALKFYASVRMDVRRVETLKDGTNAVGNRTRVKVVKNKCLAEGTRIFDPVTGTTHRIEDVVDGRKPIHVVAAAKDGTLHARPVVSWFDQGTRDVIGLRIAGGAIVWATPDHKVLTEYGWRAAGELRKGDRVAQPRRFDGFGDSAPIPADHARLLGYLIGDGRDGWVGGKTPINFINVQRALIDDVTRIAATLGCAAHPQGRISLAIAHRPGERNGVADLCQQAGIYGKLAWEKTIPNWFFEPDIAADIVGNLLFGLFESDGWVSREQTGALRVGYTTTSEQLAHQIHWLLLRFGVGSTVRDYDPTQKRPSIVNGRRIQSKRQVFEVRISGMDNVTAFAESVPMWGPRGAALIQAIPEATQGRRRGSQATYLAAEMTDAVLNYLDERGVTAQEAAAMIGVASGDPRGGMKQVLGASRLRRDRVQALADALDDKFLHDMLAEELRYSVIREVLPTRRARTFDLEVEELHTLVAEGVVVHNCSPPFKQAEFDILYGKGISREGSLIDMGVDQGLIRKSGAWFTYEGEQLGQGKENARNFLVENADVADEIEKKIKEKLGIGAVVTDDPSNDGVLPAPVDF

[10] = reduction of Shn3 3'UTR-driven luciferase in osteoblasts – cell-based, Clone20 osteoblasts, firefly luciferase, cherry-picked, dose response (AID 624132); format: functional;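 further: firefly luciferase luminescence from reporter carrying the Shn3 3'UTR in osteoblasts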
[11] = loss of viability in HepG2 cells – cell-based, CellTiter-Glo, cherry-picked, cytotoxicity control for Shn3 inhibitor project, dose response (AID 624134); format: functional
[12] = non-specific 3'UTR reporter inhibition in Clone20-Shn3RL – cell-based, Renilla luciferase, cherry-picked, counter-screen for Shn3 inhibitor project, dose response (AID 624133); format: functional
[13] = NIH-3T3 fibroblast cytotoxicity, dose response, cytotoxicity control, cell-based, fluorescence, Alamar Blue, secondary assay (AID 2327); format: functional;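 further: NIH-3T3 mouse fibroblasts cultured with fluconazole at 8 µg/mL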
[14] = luciferase reporter signal suppression in cells – H4 neuroglioma cells, luminescence, dose response (AID 1990); format: functional, cell-based
HEK293 = test: Fluorescence-based counterscreen for potentiators or agonists of NPY-Y2: cell-based high-throughput dose response assay to identify inhibitors of cyclic nucleotide gated ion channel (CNGC) activity. In this assay, the parental HEK293 cell line transfected with a cyclic-nucleotide gated ion channel (CNGC)-based cAMP sensor is used to measure inhibition of isoproterenol-induced CNGC activity by test compound.; format: functional; conditions: Homo sapiens;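 further: stimulus is 1 µM isoproterenol at EC100 plus PDE inhibitor Ro 20-1724 at 25 µM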
BJ [15] = test: BJ-TERT fibroblast viability loss – cell-based, RAS-independent, luminescence, dose response (AID 1933); format: functional; conditions: Homo sapiens
[16] = target: T3, Neuropeptide Y receptor type 2 (Homo sapiens, UniProt P49146); test: Fluorescence-based cell-based high-throughput dose response assay for agonists of NPY-Y2. [Related pubchem assays: 1703 (Screening assay (CNGC inhibitors).), 1359 (Screening assay (NPY-Y2 potentiators or agonists).), 1304 (Screening assay (NPY-Y1 potentiators or agonists).), 1710 (Screening assay (NPY-Y2 agonists).), 1791 (Summary AID.)]; format: functional
T3 sequence (P49146 whole entry): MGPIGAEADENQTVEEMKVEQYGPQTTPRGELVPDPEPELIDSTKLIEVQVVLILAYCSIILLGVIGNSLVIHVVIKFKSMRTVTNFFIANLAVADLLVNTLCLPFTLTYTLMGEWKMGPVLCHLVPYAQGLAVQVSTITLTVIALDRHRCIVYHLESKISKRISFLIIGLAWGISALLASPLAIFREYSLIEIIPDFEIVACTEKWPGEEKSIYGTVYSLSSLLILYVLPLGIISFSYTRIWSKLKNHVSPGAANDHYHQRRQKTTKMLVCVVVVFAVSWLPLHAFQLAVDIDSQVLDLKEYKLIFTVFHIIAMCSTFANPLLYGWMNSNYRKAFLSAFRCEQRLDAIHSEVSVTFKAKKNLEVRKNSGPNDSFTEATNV

[17] = Luminescence Cell-Based Dose Response HTS to Identify Inhibitors of 5'UTR Stem-Loop Driven Prion Protein mRNA Translation in H4 Neuroglioblastoma Cells. [Related pubchem assays: 1827 (Project Summary), 1813 (Primary HTS)]; format: functional
BJ [18] = test: cells; format: functional, cell-based; conditions: Homo sapiens
[19] = fluconazole-exposed Candida albicans growth modulators – fluorescence, retest, confirmation (AID 2467); format: functional, cell-based
[20] = target: T4, Neuropeptide Y receptor type 1 (Homo sapiens, UniProt P25929); test: Fluorescence-based counterscreen for agonists of NPY-Y2: cell-based high-throughput dose response assay for agonists of NPY-Y1.; format: functional
T4 sequence (P25929 whole entry): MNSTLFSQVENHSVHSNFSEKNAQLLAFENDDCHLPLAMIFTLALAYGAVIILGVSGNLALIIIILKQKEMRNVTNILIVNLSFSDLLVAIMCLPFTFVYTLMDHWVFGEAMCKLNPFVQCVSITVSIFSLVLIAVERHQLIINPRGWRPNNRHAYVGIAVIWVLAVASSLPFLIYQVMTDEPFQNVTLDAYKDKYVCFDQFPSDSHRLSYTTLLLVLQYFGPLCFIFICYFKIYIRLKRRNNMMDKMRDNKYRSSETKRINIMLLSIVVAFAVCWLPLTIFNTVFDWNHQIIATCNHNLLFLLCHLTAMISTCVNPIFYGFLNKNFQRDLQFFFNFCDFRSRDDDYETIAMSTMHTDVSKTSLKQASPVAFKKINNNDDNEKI

BJ [21] = test: BJ-TERT-LT-ST fibroblast viability loss – cell-based, RAS-independent, luminescence, dose response (AID 1935); format: functional; conditions: Homo sapiens;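 further: BJ fibroblasts immortalized with TERT plus LT and ST oncogenes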
[22] = DRD fibroblast viability loss – cell-based, non-viral oncogenic, luminescence, dose response (AID 1934); format: functional; conditions: Homo sapiens
[23] = HEK-293T viability loss after treatment – luminescence, T-cell screen hits, cytotoxicity control for TCR NF-kB inhibitor project, dose response (AID 489026); format: functional, cell-based;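 further: cells exposed to compound about 14 hours before the viability readout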
[24] = A Cell Based Secondary Assay To Explore Cytotoxicity of Compounds that Sensitize Mycobacterium Tuberculosis to Beta-Lactam Antibiotics.; format: functional

Sequence of Luciferin 4-monooxygenase (P08659 whole entry): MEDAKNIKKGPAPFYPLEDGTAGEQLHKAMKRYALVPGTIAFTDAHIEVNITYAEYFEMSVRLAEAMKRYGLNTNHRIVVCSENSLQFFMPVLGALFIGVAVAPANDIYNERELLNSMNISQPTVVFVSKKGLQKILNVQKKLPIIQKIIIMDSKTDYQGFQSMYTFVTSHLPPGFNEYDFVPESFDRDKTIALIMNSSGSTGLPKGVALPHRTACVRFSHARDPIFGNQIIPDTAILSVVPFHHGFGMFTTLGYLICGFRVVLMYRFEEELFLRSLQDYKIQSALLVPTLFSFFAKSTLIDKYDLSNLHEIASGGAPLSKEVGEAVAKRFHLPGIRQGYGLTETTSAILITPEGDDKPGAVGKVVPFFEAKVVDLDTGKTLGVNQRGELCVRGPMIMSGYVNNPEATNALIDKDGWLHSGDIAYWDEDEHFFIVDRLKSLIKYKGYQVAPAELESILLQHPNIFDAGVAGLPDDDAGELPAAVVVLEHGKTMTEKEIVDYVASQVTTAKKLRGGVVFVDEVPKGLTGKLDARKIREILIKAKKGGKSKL

COc1ccc(S(=O)(=O)NC(C)(C)C)cc1-c1nnc2c3ccccc3c(C)nn12
IC50 (cells [1]): 8.97 µM (active)

COc1ccccc1-c1cc(C(F)(F)F)nc(S(=O)(=O)CCCC(=O)N2CCOCC2)n1
EC50 [2]: 4.85 µM (active)
EC50 (cells [3]): > 350 µM (not active)
EC50 [4]: 9.95 µM (active)
EC50 [5]: 6.34 µM (active)
EC50 (cells [6]): > 350 µM (not active)
EC50 [7]: 19.2 µM (active)
EC50 (HT-1080): 30.8 µM (active)
EC50 [8]: 34.4 µM (active)
AC50 [9]: 8.15 µM (active)
EC50 (Protein RecA): 4.26 µM (active)
AC50 [10]: 3.02 µM (active)
AC50 [11]: 23.2 µM (active)
AC50 [12]: 10.2 µM (active)

CN(C)c1ccc(-[n+]2c(-c3ccccc3)cc(-c3ccccc3)cc2-c2ccccc2)cc1.[O-][Cl+3]([O-])([O-])[O-]
EC50 [13]: 4.87 µM (active)
EC50 [14]: 8.27 µM (active)
EC50 (HEK293): > 35.4 µM (not active)
EC50 (BJ [15]): 2.81 µM (active)
EC50 [16]: > 35.4 µM (not active)
EC50 [17]: > 120 µM (not active)
EC50 (BJ [18]): 3.14 µM (active)
EC50 [19]: 0.132 µM (active)
EC50 [20]: 24.4 µM (not active)
EC50 (BJ [21]): 3 µM (inconclusive)
EC50 [22]: 3.14 µM (active)
IC50 [23]: 55.4 µM (inactive)

O=C(c1ccccc1)N1CCC(CC2CC(c3cccc(Br)c3)=NO2)(C(=O)NCC2CCCCC2)CC1 (configuration not stated)
CC50 [24]: > 40 µM (active)
